The subject of assay [1] is prostate cancer PC-3 cells xenografted. Kind of assay: PC-3 xenograft tumor growth. The format is in vivo, Balb c nude mice. Conditions: 40 mg/kg iv, 5 days per week. The procedure:
FIG. 26. […] PC-3 cells (2×10^6 cells, in a final volume of 0.1 ml) were injected subcutaneously in the right flank of Balb c nude mice. After tumor formation (about 100 mm^3), nude mice were treated (iv) with vehicle control (0.1 ml normal saline), DRA11 (20 mg/kg, 0.1 ml volume), DRA11 (30 mg/kg, 0.1 ml volume), and DRA11 (40 mg/kg, 0.1 ml volume) everyday 5 days per week throughout the duration of the experiment. Tumor volume was calculated using the equation: (volume=length×width×depth×0.5236 mm^3). Data represent mean±S.E.
FIG. 29. […] PC-3 cells (1×10^6 cells, in a final volume of 0.1 ml PBS) were injected subcutaneously in the right flank of Balb c nude mice. After tumor formation (about 100 mm^3), nude mice were treated (iv) with vehicle control (0.1 ml normal saline), and DRA9S (40 mg/kg, 0.1 ml volume) everyday 5 days per week throughout the duration of the experiment. Tumor volume was calculated using the equation: (volume=length×width×depth×0.5236 mm^3). […]
PC-3 cells (2×10^6 cells, in a final volume of 0.1 ml) were injected subcutaneously in the right flank of Balb c nude mice. […] Tumor volume was calculated using the equation: (volume=length×width×depth×0.5236 mm^3). […]
PC-3 cells (1×10^6 cells, in a final volume of 0.1 ml PBS) were injected subcutaneously in the right flank of Balb c nude mice. […] Tumor volume was calculated using the equation: (volume=length×width×depth×0.5236 mm^3). […]

The test system of assay [2] is pancreatic cancer AsPC-1 cells xenografted. Kind of assay: AsPC-1 xenograft tumor growth. As to conditions: 20, 40 mg/kg iv, 5 days per week. The format is in vivo, Balb c nude mice. How it is done:
FIG. 27. […] AsPC-1 cells (2×10^6 cells as a 50% suspension in Matrigel, Becton Dickinson, Bedford, Mass., in a final volume of 0.1 ml) were injected subcutaneously in the right flank of Balb c nude mice. After tumor formation (about 100 mm^3), nude mice (10 per group) were treated (iv) with vehicle control (0.1 ml normal saline), DRA11 (20 mg/kg, 0.1 ml volume), and DRA11 (40 mg/kg, 0.1 ml volume) everyday 5 days per week throughout the duration of the experiment. Tumor volume was calculated using the equation: (volume=length×width×depth×0.5236 mm^3).
FIG. 31. […] MDA-MB-468 cells (2×10^6 cells, in a final volume of 0.1 ml PBS) were injected subcutaneously in the right flank of Balb c nude mice. […] Tumor volume was calculated using the equation: (volume=length×width×depth×0.5236 mm^3). […]
AsPC-1 cells (2×10^6 cells as a 50% suspension in Matrigel, Becton Dickinson, Bedford, Mass., in a final volume of 0.1 ml) were injected subcutaneously in the right flank of Balb c nude mice. […] Tumor volume was calculated using the equation: (volume=length×width×depth×0.5236 mm^3). […]
MDA-MB-468 cells (2×10^6 cells, in a final volume of 0.1 ml PBS) were injected subcutaneously in the right flank of Balb c nude mice. […] Tumor volume was calculated using the equation: (volume=length×width×depth×0.5236 mm^3). […]

The values below come from patent US7915245B2, “Methods and compositions of trail-death receptor agonists/activators” (The Board of Regents of the University of Texas System, priority 2007, dated 2011).

For `CCOc1cc(Br)c(Br)c(/C=N/c2cccc(C(=O)O)c2C)c1O` [DRA9S], the “growth of xenografted PC-3 tumors (tumor volume)” value in assay [1] is on record as “inhibits growth”. Besides, the “growth of xenografted AsPC-1 tumors (tumor volume)” value in assay [2] is on record as “inhibits growth”.
